Results on 29 molecules are retold here after patent publication US10968203B2, “Pyrimidinyl-pyridyloxy-naphthyl compounds and methods of treating IRE1-related diseases and disorders” (Genentech, Inc., priority 2017, dated 2021).

Counter-ions that a name gives are not always drawn. Like-named read-outs stand apart in the source and are kept apart here.

As usually defined, the IC50 is the concentration needed to halve the response being measured.

For this experiment, the system named is XBP1s-luc 293 LUC. In words: cellular PD assay, XBP1s-LUC reporter (Example 903). It counts as cell-based. The following applies: read-out: XBP1s-luc 293 LUC (IC50). An outline of the steps: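 A luciferase fusion, in frame and expressed only when the XBP1 transcript is spliced, served as the readout of cellular IRE1α activity in an XBP1-Luc reporter line.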

For the molecule `Cc1cc(CS(=O)(=O)Nc2c(F)ccc3c(Oc4ncccc4-c4ccnc(N[C@H]5CCCNC5)n4)c(C)ccc23)no1` [Example 412, (S)—N-(2-Fluoro-6-methyl-5-((3-(2-(piperidin-3-ylamino)pyrimidin-4-yl)pyridin-2-yl)oxy)naphthalen-1-yl)-1-(5-methylisoxazol-3-yl)methanesulfonamide hydrochloride], where the note is “Table 2”, the IC50 was found to be 0.007 µM.

Consider `Cc1ccc2c(NCC(O)C(C)C)cccc2c1Oc1ncccc1-c1ccnc(N[C@H]2CCCNC2)n1` (mixture of isomers) [Example 200, 3-Methyl-1-((6-methyl-5-((3-(2-((S)-piperidin-3-ylamino)pyrimidin-4-yl)pyridin-2-yl)oxy)naphthalen-1-yl)amino)butan-2-ol], for which the half-maximal inhibitory concentration (IC50) (Table 1) stood at 0.077 µM.

As to `Cc1ccc2c(NS(=O)(=O)Cc3cccc(Cl)c3)cccc2c1Oc1ncccc1-c1ccnc(N[C@H]2CCCNC2)n1` [Example 144, (S)-1-(3-Chlorophenyl)-N-(6-methyl-5-((3-(2-(piperidin-3-ylamino)pyrimidin-4-yl)pyridin-2-yl)oxy)naphthalen-1-yl)methanesulfonamide], the IC50 (Table 1) turned out to be 0.025 µM.

Regarding `Cc1ccc2c(NS(=O)(=O)N3CCCC3)cccc2c1Oc1ncccc1-c1ccnc(N[C@H]2CCCNC2)n1` [Example 108, (S)—N-(6-Methyl-5-((3-(2-(piperidin-3-ylamino)pyrimidin-4-yl)pyridin-2-yl)oxy)naphthalen-1-yl)pyrrolidine-1-sulfonamide hydrochloride], where the note is “Table 1”, the IC50 turned out to be 0.298 µM.

In the case of `Cc1ccc2c(NS(=O)(=O)CC3(F)CC3)c(F)ccc2c1Oc1ncccc1-c1ccnc(N[C@H]2CCCNC2)n1` [Example 453, (S)—N-(2-Fluoro-6-methyl-5-((3-(2-(piperidin-3-ylamino)pyrimidin-4-yl)pyridin-2-yl)oxy)naphthalen-1-yl)-1-(1-fluorocyclopropyl)methanesulfonamide hydrochloride], the IC50 (Table 2) came out at 0.018 µM.

Take `Cc1cc(S(=O)(=O)Nc2cccc3c(Oc4ncccc4-c4ccnc(N[C@H]5CCCNC5)n4)c(C)ccc23)sn1` [Example 168, (S)-3-Methyl-N-(6-methyl-5-((3-(2-(piperidin-3-ylamino)pyrimidin-4-yl)pyridin-2-yl)oxy)naphthalen-1-yl)isothiazole-5-sulfonamide]: the IC50 (Table 1) worked out at 0.172 µM.

Consider `Cc1ccc2c(NC[C@@H](C#N)C(C)C)cccc2c1Oc1ncccc1-c1ccnc(N[C@H]2CCCNC2)n1` [Example 423, (S)-3-Methyl-2-(((6-methyl-5-((3-(2-(((S)-piperidin-3-yl)amino)pyrimidin-4-yl)pyridin-2-yl)oxy)naphthalen-1-yl)amino)methyl) butanenitrile], for which the IC50 (Table 2) was determined as 0.207 µM.

As for `Cc1ccc2c(NCC(C)(C)O)cccc2c1Oc1ncccc1-c1ccnc(N[C@H]2CCCNC2)n1` [Example 306, (S)-2-Methyl-1-((6-methyl-5-((3-(2-(piperidin-3-ylamino)pyrimidin-4-yl)pyridin-2-yl)oxy)naphthalen-1-yl)amino)propan-2-ol], for the setting “Table 1”, the IC50 came out at 0.24 µM.

Regarding `Cc1ccc2c(NC(=O)C3CC4(CCC4)C3)cccc2c1Oc1ncccc1-c1ccnc(N[C@H]2CCCNC2)n1` [Example 255, (S)—N-(6-Methyl-5-((3-(2-(piperidin-3-ylamino)pyrimidin-4-yl)pyridin-2-yl)oxy)naphthalen-1-yl)spiro[3.3]heptane-2-carboxamide], under “Table 1”, the IC50 came out at 0.182 µM.

On to `Cc1ccc2c(NC(=O)[C@H]3C[C@@H]3C)cccc2c1Oc1ncccc1-c1ccnc(N[C@H]2CCCNC2)n1` [Example 234, (1S,2S)-2-Methyl-N-(6-methyl-5-((3-(2-(((S)-piperidin-3-yl)amino)pyrimidin-4-yl)pyridin-2-yl)oxy)naphthalen-1-yl)cyclopropane-1-carboxamide], for which, for the setting “Table 1”, the IC50 came out at 0.111 µM.

With `Cc1c(F)c(NS(=O)(=O)CCC(F)(F)F)c2ccccc2c1Oc1ncccc1-c1ccnc(N[C@H]2CC[C@H](N)CC2)n1` [Example 483, N-(4-((3-(2-(((1r,4r)-4-Aminocyclohexyl)amino)pyrimidin-4-yl)pyridin-2-yl)oxy)-2-fluoro-3-methylnaphthalen-1-yl)-3,3,3-trifluoropropane-1-sulfonamide], the IC50 (Table 2) stood at 0.146 µM.

Consider `CC[C@H]1CCN(c2cccc3c(Oc4ncccc4-c4ccnc(N[C@@H]5CNC[C@H](C)C5)n4)c(C)ccc23)C1=O` (single isomer, unassigned) [Example 332], for which, for the setting “Table 1”, the IC50 amounted to 0.194 µM.

On to `Cc1ccc2c(NS(=O)(=O)C[C@@H]3CC34CC4)c(F)ccc2c1Oc1ncccc1-c1ccnc(N[C@H]2CCCNC2)n1` (single isomer, unassigned) [Example 473, hydrochloride], for which the IC50 (Table 2) turned out to be 0.076 µM.

Turning to `CCOC(=O)Nc1cccc2c(Oc3ncccc3-c3ccnc(N[C@H]4CCCNC4)n3)c(C)ccc12` [Example 153, (S)-Ethyl (6-methyl-5-((3-(2-(piperidin-3-ylamino)pyrimidin-4-yl)pyridin-2-yl)oxy)naphthalen-1-yl)carbamate], under “Table 1”, the half-inhibitory concentration (IC50) stood at 0.143 µM.

Turning to `Cc1ccc2c(NC(=O)[C@H]3CC3(F)F)cccc2c1Oc1ncccc1-c1ccnc(N[C@H]2CCCNC2)n1` (single isomer, unassigned) [Example 179], the half-inhibitory concentration (IC50) (Table 1) was determined as 0.076 µM.

Take `Cc1cn(C)nc1Nc1cccc2c(Oc3ncccc3-c3ccnc(N[C@H]4CCCNC4)n3)c(C)ccc12` [Example 358, (S)-4-(2-((5-((1,4-Dimethyl-1H-pyrazol-3-yl)amino)-2-methylnaphthalen-1-yl)oxy)pyridin-3-yl)-N-(piperidin-3-yl)pyrimidin-2-amine]: the IC50 (Table 1) turned out to be 0.266 µM.

In the case of `Cc1nc(CNc2cccc3c(Oc4ncccc4-c4ccnc(N[C@@H]5CNC[C@H](C)C5)n4)c(C)ccc23)cs1` [Example 323, 4-(2-((2-Methyl-5-(((2-methylthiazol-4-yl)methyl)amino)naphthalen-1-yl)oxy)pyridin-3-yl)-N-((3S,5R)-5-methylpiperidin-3-yl)pyrimidin-2-amine], under “Table 1”, the half-inhibitory concentration (IC50) was 0.0889 µM.

Regarding `Cc1ccc2c(NCc3ccn(C)n3)cccc2c1Oc1ncccc1-c1ccnc(N[C@H]2CCCNC2)n1` [Example 262, (S)-4-(2-((2-Methyl-5-(((1-methyl-1H-pyrazol-3-yl)methyl)amino)naphthalen-1-yl)oxy)pyridin-3-yl)-N-(piperidin-3-yl)pyrimidin-2-amine], where the note is “Table 1”, the IC50 amounted to 0.171 µM.

As for `Cc1ccc2c(N[C@@H]3CCCC[C@H]3O)cccc2c1Oc1ncccc1-c1ccnc(N[C@H]2CCCNC2)n1` (single isomer, unassigned) [Example 446, hydrochloride], under “Table 2”, the IC50 amounted to 0.067 µM.

With `Cc1ccc2c(NC(=O)CC(O)C(F)(F)F)cccc2c1Oc1ncccc1-c1ccnc(N[C@H]2CCCNC2)n1` (single isomer, unassigned) [Example 435], where the note is “Table 2”, the IC50 was 0.338 µM.

On to `Cc1ccc2c(N3CCC(C)S3(=O)=O)cccc2c1Oc1ncccc1-c1ccnc(N[C@H]2CCCNC2)n1` (mixture of isomers) [Example 245, 5-Methyl-2-(6-methyl-5-((3-(2-((S)-piperidin-3-ylamino)pyrimidin-4-yl)pyridin-2-yl)oxy)naphthalen-1-yl)isothiazolidine 1,1-dioxide], for which the IC50 (Table 1) amounted to 0.294 µM.

`Cc1ccc2c(NCCc3cscn3)cccc2c1Oc1ncccc1-c1ccnc(N[C@H]2CCCNC2)n1` [Example 260, (S)-4-(2-((2-Methyl-5-((2-(thiazol-4-yl)ethyl)amino)naphthalen-1-yl)oxy)pyridin-3-yl)-N-(piperidin-3-yl)pyrimidin-2-amine]: the IC50 (Table 1) is 0.103 µM.

With `Cc1ccc2c(NC(=O)[C@@H]3CCC(C)C3)cccc2c1Oc1ncccc1-c1ccnc(N[C@H]2CCCNC2)n1` (single isomer, unassigned) [Example 277], for the setting “Table 1”, the IC50 was 0.171 µM.

For the molecule `Cc1ccc2c(NS(=O)(=O)N(C)C)cccc2c1Oc1ncccc1-c1ccnc(N[C@H]2CCCNC2)n1` [Example 109, 4-[2-[[5-(Dimethylsulfamoylamino)-2-methyl-1-naphthyl]oxy]-3-pyridyl]-2-[[(3S)-3-piperidyl]amino]pyrimidine hydrochloride], the IC50 (Table 1) stood at 0.222 µM.

For the molecule `Cc1ccc2c(NC(=O)C3CC3)cccc2c1Oc1ncccc1-c1ccnc(N[C@H]2CCCNC2)n1` [Example 337, (S)—N-(6-Methyl-5-((3-(2-(piperidin-3-ylamino)pyrimidin-4-yl)pyridin-2-yl)oxy)naphthalen-1-yl)cyclopropanecarboxamide hydrochloride], the IC50 (Table 1) is 0.0842 µM.

As for `Cc1cc(NS(=O)(=O)Cc2ccccc2)c2ccccc2c1Oc1ncccc1-c1ccnc(N[C@H]2CC[C@H](N)CC2)n1` [Example 110, N-(4-((3-(2-(((1r,4r)-4-aminocyclohexyl)amino)pyrimidin-4-yl)pyridin-2-yl)oxy)-3-methylnaphthalen-1-yl)-1-phenylmethanesulfonamide hydrochloride], where the note is “Table 1”, the IC50 turned out to be 0.119 µM.

In the case of `Cc1ccc2c(NC3CCCC3O)cccc2c1Oc1ncccc1-c1ccnc(N[C@H]2CCCNC2)n1` (mixture of isomers) [Example 383, anti-2-((6-Methyl-5-((3-(2-((S)-piperidin-3-ylamino)pyrimidin-4-yl)pyridin-2-yl)oxy)naphthalen-1-yl)amino)cyclopentanol], the IC50 (Table 1) turned out to be 0.231 µM.

On to `Cc1ccc2c(NS(=O)(=O)CCCF)cccc2c1Oc1ncccc1-c1ccnc(N[C@H]2CCCNC2)n1` [Example 118, (S)-3-Fluoro-N-(6-methyl-5-((3-(2-(piperidin-3-ylamino)pyrimidin-4-yl)pyridin-2-yl)oxy)naphthalen-1-yl)propane-1-sulfonamide hydrochloride], for which the IC50 (Table 1) is 0.323 µM.

Regarding `Cc1ccc2c(NS(=O)(=O)Cc3ccccc3F)c(F)ccc2c1Oc1ncccc1-c1ccnc(N[C@@H]2CNC[C@H](C)C2)n1` [Example 477, N-(2-Fluoro-6-methyl-5-((3-(2-(((3S,5R)-5-methylpiperidin-3-yl)amino)pyrimidin-4-yl)pyridin-2-yl)oxy)naphthalen-1-yl)-1-(2-fluorophenyl)methanesulfonamide], the IC50 (Table 2) was 0.007 µM.
